Results from patent publication US4119710A, “Bronchospasmolytic 1-(p-amino-phenyl)-2-amino-ethanols-(1) and salts” (Boehringer Ingelheim GmbH, priority 1972, dated 1978).
Counter-ions that a name gives are not always drawn.

Columns and labels:
β2 -receptors = molecular target: T1, β2 -receptors (Cavia porcellus, UniProt Q8K4Z4); assay: β2-mimetic activity: antagonism to acetylcholine bronchospasm in anesthetized guinea pigs (Konzett-Rossler); type: in vivo; details: for ED50: guinea pig, iv, bronchospasm by 20 γ/kg acetylcholine i.v., test compound i.v., graphic extrapolation (Table I); for Duration of activity (β2 -mimetic activity): i.v. (Table I)
T1 construct: tested on anesthetized guinea pigs; from tissue; host or cells: living anesthetized guinea pig, airways (Konzett-Rossler)
T1 sequence (Q8K4Z4 whole entry): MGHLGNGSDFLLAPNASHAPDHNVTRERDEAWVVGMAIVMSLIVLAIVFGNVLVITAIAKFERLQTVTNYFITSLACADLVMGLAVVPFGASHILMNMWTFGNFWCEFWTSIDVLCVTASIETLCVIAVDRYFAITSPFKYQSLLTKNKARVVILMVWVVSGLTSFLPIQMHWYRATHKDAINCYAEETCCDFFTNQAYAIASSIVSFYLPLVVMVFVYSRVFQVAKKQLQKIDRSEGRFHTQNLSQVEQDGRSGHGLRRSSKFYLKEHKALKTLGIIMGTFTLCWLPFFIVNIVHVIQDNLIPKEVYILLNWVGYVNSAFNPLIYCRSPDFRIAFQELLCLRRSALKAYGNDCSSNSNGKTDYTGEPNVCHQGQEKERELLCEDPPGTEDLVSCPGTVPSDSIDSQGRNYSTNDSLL
Description: (§1) The compounds of this invention were tested for toxicity and with regard to their action on the β-receptors in warm-blooded animals, such as cats and guinea pigs, by the methods described below, and the following test results were obtained for representative species of the genus, where
The β2 -mimetic activity was tested on anesthetized guinea pigs as antagonism to bronchospasm provoked by intravenous administration of 20 γ of acetylcholine per kg body weight (according to the method of Konzett-Rossler) by intravenous administration of the test compound. From the average percentage decrease of the bronchospasm produced by various doses of the test compound, a median effective dose (ED50) was determined by graphic extrapolation (see Table I).

[1] = acute toxicity in mice (LD50, Litchfield and Wilcoxon); details: mouse, in vivo, iv, groups of 10, i.v., deaths within 14 days (Table II), read-out: LD50
Description: as §1
The acute toxicity of the compounds was determined on groups of 10 mice.

β1 -receptors = molecular target: T2, β1 -receptors (Felis catus, UniProt Q9TST6); assay: β1-blocking activity: antagonism to tachycardia provoked by N-isopropyl-noradrenalin sulfate in anesthetized cats; type: in vivo; details: cat, iv, tachycardia by 1.0 γ/kg i.v. N-isopropyl-noradrenalin sulfate, graphic extrapolation (Table II), read-out: Blocking action on the β1 -receptors ED50
T2 construct: tested on anesthetized cats; from tissue; host or cells: living anesthetized cat, heart (heart rate)
T2 sequence (Q9TST6 whole entry): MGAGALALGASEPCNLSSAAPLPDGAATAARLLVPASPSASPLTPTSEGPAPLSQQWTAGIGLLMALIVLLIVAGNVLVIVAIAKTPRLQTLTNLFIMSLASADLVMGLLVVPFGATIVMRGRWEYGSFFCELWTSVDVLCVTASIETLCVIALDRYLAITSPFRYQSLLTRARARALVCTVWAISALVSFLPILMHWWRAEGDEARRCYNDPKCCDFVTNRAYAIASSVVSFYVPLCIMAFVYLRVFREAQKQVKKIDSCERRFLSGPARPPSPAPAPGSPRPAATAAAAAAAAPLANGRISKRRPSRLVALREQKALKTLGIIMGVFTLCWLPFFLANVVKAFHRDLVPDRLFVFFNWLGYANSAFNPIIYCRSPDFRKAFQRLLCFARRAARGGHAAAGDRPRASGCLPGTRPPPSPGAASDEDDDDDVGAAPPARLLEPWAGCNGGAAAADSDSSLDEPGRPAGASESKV
Description: as §1
The β1 -blocking activity was tested on anesthetized cats as antagonism to tachycardia provoked by a standard dose of 1.0 γ/kg i.v. of N-isopropyl-noradrenalin sulfate. From the average percentage reduction in heart rate acceleration caused by N-isopropyl-noradrenalin sulfate, obtained by various doses of the test compound in question, a median effective dose (ED50) was determined by graphic extrapolation (see Tables II and III).

SMILES	ED50 (β2 -receptors) [mg/kg]	Duration of activity (β2 -mimetic activity) (β2 -receptors) [min]	LD50 at 336 h [1] [mg/kg]	ED50 (β1 -receptors) [mg/kg]
Cl.N#Cc1cc(C(O)CNC2CCC2)cc(Br)c1N (stereo not shown) [W, 1-(4'-amino-3'-bromo-5'-cyano-phenyl)-2-cyclobutylamino-ethanol hydrochloride]	0.0205	> 50	38.5	
Cl.Nc1c(F)cc(C(O)CNC2CCC2)cc1Br (stereo not shown) [K, 1-(4'-amino-3'-bromo-5'-fluoro-phenyl)-2-cyclobutylamino-ethanol hydrochloride]	0.058	> 50	26.4	0.0015
CC(C)(C)NCC(O)c1cc(F)c(N)c(C#N)c1.Cl (stereo not shown) [N, 1-(4'-amino-3'-fluoro-5'-cyano-phenyl)-2-tert.butylamino-ethanol hydrochloride]	0.00032	> 40	58.4	
Cl.N#Cc1cc(C(O)CNC2CCCC2)cc(Cl)c1N (stereo not shown) [U, 1-(4'-amino-3'-chloro-5'-cyano-phenyl)-2-cyclopentylamino-ethanol hydrochloride]	0.0098	> 50	39.1	0.0007
CCC(C)(C)NCC(O)c1ccc(N)c(C#N)c1 (stereo not shown) [P, 1-(4'-amino-3'-cyano-phenyl)-2-tert.pentylamino-ethanol]	0.0036	65	62	
Br.CCC(C)(C)NCC(O)c1ccc(N)c(C(F)(F)F)c1 (stereo not shown) [F, 1-(4'-amino-3'-trifluoromethyl-phenyl)-2-tert.pentylamino-ethanol hydrobromide]				0.035
Cl.Nc1c(F)cc(C(O)CNC2CC2)cc1Cl (stereo not shown) [C, 1-(4'-amino-3'-chloro-5'-fluoro-phenyl)-2-cyclopropylamino-ethanol hydrochloride]	0.024	> 50	57	0.014
CC(C)(C)NCC(O)c1cc(Br)c(N)c(C#N)c1.Cl (stereo not shown) [J, 1-(4'-amino-3'-bromo-5'-cyano-phenyl)-2-tert.butylamino-ethanol hydrochloride]	0.0048	> 40	67	
CC(C)NCC(O)c1cc(F)c(N)c(C#N)c1.Cl (stereo not shown) [M, 1-(4'-amino-3'-fluoro-5'-cyano-phenyl)-2-isopropylamino-ethanol hydrochloride]		> 40	66.4	0.00027
CC(C)(C)N1COC(c2cc(F)c(N)c(Br)c2)C1.Cl.Cl (stereo not shown) [B, 5-(4'-amino-3'-bromo-5'-fluoro-phenyl)-3-tert.butyloxazolidine dihydrochloride]	0.0067	> 110	27.2	
Nc1c(Cl)cc(C(O)CNC2CCC2)cc1C(F)(F)F (stereo not shown) [H, 1-(4'-amino-3'-chloro-5'-trifluoromethyl-phenyl)-2-cyclobutylamino-ethanolhydrochloride]	0.0068	> 125	36.3	
CC(C)(C)NCC(O)c1cc(Br)c(N)c([N+](=O)[O-])c1 (stereo not shown) [Y, 1-(4'-amino-3'-bromo-5'-nitro-phenyl)-2-tert.butylamino-ethanol]			35.8	0.0028
CCC(C)(C)NCC(O)c1cc(Cl)c(N)c(C#N)c1.Cl (stereo not shown) [T, 1-(4'-amino-3'-chloro-5'-cyano-phenyl)-2-tert.pentylamino-ethanol hydrochloride]	0.0019	> 40	33.7	0.00045
CCCNCC(O)c1cc(Cl)c(N)c(C#N)c1.Cl (stereo not shown) [Q, 1-(4'-amino-3'-chloro-5'-cyano-phenyl)-2-propylamino-ethanol hydrochloride]	0.027	50	53.4	0.00076
CC(C)(C)NCC(O)c1ccc(N)c(F)c1.Cl (stereo not shown) [E, 1-(4'-amino-3'-fluoro-phenyl)-2-tert.butylamino-ethanol hydrochloride]	0.018	> 80	69.2	0.0135
CC(C)(CO)NCC(O)c1cc(Cl)c(N)c(C#N)c1 (stereo not shown) [S, 1-(4'-amino-3'-chloro-5'-cyano-phenyl)-2-(hydroxy-tert.butylamino)-ethanolhydrochloride]	0.01	> 65	81.8	0.00076
Cl.Nc1c(F)cc(C(O)CNC2CC2)cc1I (stereo not shown) [L, 1-(4'-amino-3'-fluoro-5'-iodo-phenyl)-2-cyclopropylamino-ethanol hydrochloride]			45.2	0.0013
CC(C)(C)NCC(O)c1cc(Cl)c(N)c([N+](=O)[O-])c1 (stereo not shown) [Z, 1-(4'-amino-3'-chloro-5'-nitro-phenyl)-2-tert.butylamino-ethanol]	0.0315	> 80	42.4	0.0045
CC(Cc1ccc2c(c1)OCO2)NCC(O)c1cc(Cl)c(N)c(C#N)c1 (stereo not shown) [V, 1-(4'-amino-3'-chloro-5'-cyano-phenyl)-2-[1"-(3,4-methylenedioxy-phenyl)-2"-propylamino]-ethanol hydrochloride]	0.0027	> 65	13.5	0.0014
Br.N#Cc1cc(C(O)CNC2CCC2)ccc1N (stereo not shown) [O, 1-(4'-amino-3'-cyano-phenyl)-2-cyclobutylamino-ethanol hydrobromide]	0.0069	40	61.8	
CC(C)(C)NCC(O)c1cc(Cl)c(N)c(C#N)c1 (stereo not shown) [I, 1-(4'-amino-3'-chloro-5'-cyano-phenyl)-2-tert.butylamino-ethanol]	0.0002	> 95	60	0.00074
CCC(C)NCC(O)c1cc(Cl)c(N)c(C#N)c1.Cl (stereo not shown) [R, 1-(4'-amino-3'-chloro-5'-cyano-phenyl)-2-sec.butylamino-ethanol hydrochloride]	0.0057	> 80	40.4	0.00032
CC(C)(C)NCC(O)c1cc(F)c(N)c(Cl)c1.Cl (stereo not shown) [D, 1-(4'-amino-3'-chloro-5'-fluoro-phenyl)-2-tert.butylamino-ethanol hydrochloride]	0.019	> 120	35.1	0.008
CC(C)(C)NCC(O)c1cc(C#N)c(N)c(C#N)c1.Cl (stereo not shown) [X, 1-(4'-amino-3',5'-dicyano-phenyl)-2-tert.butylamino-ethanol hydrochloride]	0.0113	> 65	166	0.00092
CC(C)(C)NCC(O)c1cc(F)c(N)c(Br)c1.Cl (stereo not shown) [A, 1-(4'-amino-3'-bromo-5'-fluoro-phenyl)-2-tert.butylamino-ethanol hydrochloride]	0.0083	> 150	34.5	0.0185
